According to patent publication US20230303510A1, “CYCLIZED ACETAMIDO DERIVATIVES AS DNA POLYMERASE THETA INHIBITORS” (Ideaya Biosciences, Inc., priority 2020, published 2023):

Experiments:
[1] = target: T1, Pol theta polymerase domain (residues 1819-2590) (Homo sapiens, UniProt O75417); assay: Primer extension assay (inhibition of polymerase activity of Pol theta, molecular beacon fluorescence); assay type: biochemical; conditions: Pol theta polymerase domain 4 nM; fluorescence change over 30 min
T1 construct: Pol theta polymerase domain (residues 1819-2590) at a final concentration of 4 nM
T1 sequence (O75417 1819-2590): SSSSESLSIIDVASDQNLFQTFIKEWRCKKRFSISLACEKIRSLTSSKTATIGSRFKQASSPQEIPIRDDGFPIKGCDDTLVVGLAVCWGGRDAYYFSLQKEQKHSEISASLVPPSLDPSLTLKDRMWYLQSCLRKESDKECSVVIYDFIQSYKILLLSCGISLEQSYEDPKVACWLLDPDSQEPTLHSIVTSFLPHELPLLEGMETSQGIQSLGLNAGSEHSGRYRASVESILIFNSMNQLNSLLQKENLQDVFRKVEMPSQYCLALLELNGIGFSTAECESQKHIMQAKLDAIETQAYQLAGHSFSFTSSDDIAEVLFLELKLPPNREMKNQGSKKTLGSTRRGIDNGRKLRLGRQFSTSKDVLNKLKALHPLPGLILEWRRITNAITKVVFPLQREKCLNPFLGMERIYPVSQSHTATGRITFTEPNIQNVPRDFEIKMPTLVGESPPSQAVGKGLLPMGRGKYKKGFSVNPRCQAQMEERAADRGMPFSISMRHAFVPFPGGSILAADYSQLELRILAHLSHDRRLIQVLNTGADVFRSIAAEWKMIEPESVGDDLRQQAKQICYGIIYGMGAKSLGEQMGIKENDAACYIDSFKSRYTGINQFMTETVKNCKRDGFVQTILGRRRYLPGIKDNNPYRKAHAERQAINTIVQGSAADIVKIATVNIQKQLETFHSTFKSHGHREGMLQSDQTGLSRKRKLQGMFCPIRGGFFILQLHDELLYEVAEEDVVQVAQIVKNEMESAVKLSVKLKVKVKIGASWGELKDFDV
Procedure: The ability of the compounds of Formula (I) or Formula (II) to inhibit polymerase activity of Pol theta was determined using the primer extension assay as set forth below.
A mixture of 20 uL of Pol theta polymerase domain (residues 1819-2590) at a final concentration of 4 nM in assay buffer (20 m M TRIS, pH 7.80, 50 mM KCl, 10 mM MgCl2, 1 mM DTT, 0.01% BSA, 0.01% Tween20) was added to test compounds (11-point dilution series of test compounds) except the low control wells without test compounds. The above enzyme and test compound inhibitor mixture was then incubated at room temperature for 15 min. An equal volume (20 μl) of dNTP substrate mixture (48 μM) and primed molecular beacon DNA (obtained by annealing template SEQ ID NO:2: (5′-CCTTCCTCCCGTGTCTTG-TACCTTCCCGTCA-GGAGGAAGG-3′) with 5′-TAMRA and 3′-BHQ and primer DNA (SEQ ID NO:3; 5′-GACGGGAAGG-3′) in 10 mM Tris-HCl pH 8.0, 100 mM NaCl buffer) (96 nM) in assay buffer was added to all the test wells. The inhibition activity was measured by monitoring the fluorescence change over 30 min at 535 nm upon excitation at 485 nm. The high control (DMSO with enzyme) with high fluorescence intensity represents no inhibition of polymerase reaction while the low control (DMSO with buffer) with low fluorescence intensity represents full inhibition of polymerase activity. Slope of the reaction progress curves were used to calculate the rate of polymerization. The rates were used to determine the percent inhibition using a four-parameter inhibition model to generate IC50, Hill slope and max inhibition.

[2] = target: T2, Pol theta (residues 1819-2590) (Homo sapiens, UniProt O75417); assay: PPi assay (inhibition of polymerase activity of Pol theta, PPiLite luminescence); assay type: biochemical; conditions: Pol theta 2.8 nM; luminescence kinetic mode 90 min
T2 construct: Pol theta polymerase domain (residues 1819-2590) at a final concentration of 4 nM
T2 sequence (O75417 1819-2590): T1 sequence (O75417 1819-2590)
Procedure: The ability of the compounds of Formula (I) or Formula (II) to inhibit polymerase activity of Pol theta was determined using the PPi assay as set forth below.
A mixture of template DNA strand (SEQ ID NO:4: 5′ ATTACTGACCTCATACTTCTGCCCTTCCATGTTCTGTGCCCTCCTTCC 3′) and primer DNA strand (SEQ ID NO:5: 5′ GGA AGG AGG GCA CAG AAC 3′) was annealed in 10 mM Tris-HCl pH 8.0, […] buffer to form the primed DNA substrate. A 10-point dilution series of compounds were used in a 384 well format for the inhibition assay. Pol theta (residues 1819-2590) (2.8 nM) in assay buffer (20 mM Tris-HCl pH 7.8, 50 mM KCl, 10 mM MgCl2, 1 mM DTT, 0.01% BSA, 0.01% Tween-20) was transferred to the test wells (10 uL), except for the low control wells. The plate was then incubated at room temperature for 15 mins. An equal volume (10 μL) of dNTP substrate (40 μM) and primed DNA substrate (800 nM) in assay buffer was added to all the test wells. 20 μL of PPi detection reagent (PPiLite inorganic pyrophosphate assay, Lonzo) was then added to all test wells. The plate was then centrifuged at 1000 rpm for 1 min. The reaction was monitored in a Tecan M1000 Pro plate reader in luminescence kinetic mode for 90 min. The high control (DMSO with enzyme) with high luminescence represents no inhibition of the polymerase reaction while the low control (DMSO with buffer) with low luminescence represents full inhibition of the polymerase activity. Slope of the reaction progress curves were used to calculate the rate of polymerization. The rates were used to determine the percent inhibition using a four-parameter inhibition model to generate IC50, Hill slope, maximum inhibition, and minimum inhibition.

| SMILES | IC50 [1] [µM] | IC50 [2] [µM] |
| --- | --- | --- |
| CN(C(=O)C1CCCN1c1cc(C(F)(F)F)cc(C(F)(F)F)n1)c1ccc(F)cc1 (stereo not drawn) [1.001, 1-(4,6-bis(trifluoromethyl)pyridin-2-yl)-N-(4-fluorophenyl)-N-methylpyrrolidine-2-carboxamide] | ≤ 0.2 |  |
| CN(C(=O)C1CCCN1c1ccccc1)c1ccccc1 (stereo not drawn) [1.004, N-methyl-N,1-diphenylpyrrolidine-2-carboxamide] | 1 to 10 |  |
| CN(C(=O)C1CCN1c1cc(C(F)(F)F)cc(C(F)(F)F)n1)c1ccc(F)cc1 (stereo not drawn) [1.005, 1-(4,6-bis(trifluoromethyl)pyridin-2-yl)-N-(4-fluorophenyl)-N-methylazetidine-2-carboxamide] | ≤ 0.2 |  |
| CN(C(=O)C1CCCCN1c1cc(C(F)(F)F)cc(C(F)(F)F)n1)c1ccc(F)cc1 (stereo not drawn) [1.007, 1-(4,6-bis(trifluoromethyl)pyridin-2-yl)-N-(4-fluorophenyl)-N-methylpiperidine-2-carboxamide] | ≤ 0.2 |  |
| Fc1ccc(-c2cccnc2C2CCCN2c2cc(C(F)(F)F)cc(C(F)(F)F)n2)cc1 (stereo not drawn) [1.008, 2-(2-(3-(4-fluorophenyl)pyridin-2-yl)pyrrolidin-1-yl)-4,6-bis(trifluoromethyl)pyridine] | ≤ 0.2 |  |
| CN(C(=O)[C@@H]1CCCN1c1cc(C(F)(F)F)cc(C(F)(F)F)n1)c1ccc(Br)cc1 [1.009, (S)-1-(4,6-bis(trifluoromethyl)pyridin-2-yl)-N-(4-bromophenyl)-N-methylpyrrolidine-2-carboxamide] | ≤ 0.2 |  |
| CN(C(=O)[C@@H]1CCCN1c1cc(C(F)(F)F)cc(C(F)(F)F)n1)c1ccc2occc2c1 [1.010, (S)-N-(benzofuran-5-yl)-1-(4,6-bis(trifluoromethyl)pyridin-2-yl)-N-methylpyrrolidine-2-carboxamide] | ≤ 0.2 |  |
| CN(C(=O)[C@@H]1CCCN1c1cc(C(F)(F)F)cc(C(F)(F)F)n1)c1ccncc1 [1.011, (S)-1-(4,6-bis(trifluoromethyl)pyridin-2-yl)-N-methyl-N-(pyridin-4-yl)pyrrolidine-2-carboxamide] | ≤ 0.2 |  |
| O=C([C@@H]1CCCN1c1cc(C(F)(F)F)cc(C(F)(F)F)n1)N(c1ccc(F)cc1)C1CC1 [1.012, (S)-1-(4,6-bis(trifluoromethyl)pyridin-2-yl)-N-cyclopropyl-N-(4-fluorophenyl)pyrrolidine-2-carboxamide] | ≤ 0.2 |  |
| CN(C(=O)[C@@H]1C[C@H](O)CN1c1cc(C(F)(F)F)cc(C(F)(F)F)n1)c1ccc(F)cc1 [1.013, (2S,4S)-1-(4,6-bis(trifluoromethyl)pyridin-2-yl)-N-(4-fluorophenyl)-4-hydroxy-N-methylpyrrolidine-2-carboxamide] | ≤ 0.2 |  |
| CN(C(=O)[C@@H]1CCCN1c1cc(C(F)(F)F)ccn1)c1ccc(F)cc1 [1.014, (S)-N-(4-fluorophenyl)-N-methyl-1-(4-(trifluoromethyl)pyridin-2-yl)pyrrolidine-2-carboxamide] | ≤ 0.2 |  |
| CN(C(=O)[C@@H]1CCCN1c1cccc(C(F)(F)F)n1)c1ccc(F)cc1 [1.015, (S)-N-(4-fluorophenyl)-N-methyl-1-(6-(trifluoromethyl)pyridin-2-yl)pyrrolidine-2-carboxamide] | ≤ 0.2 |  |
| CN(C(=O)[C@@H]1C[C@@H](O)CN1c1cc(C(F)(F)F)cc(C(F)(F)F)n1)c1ccc(F)cc1 [1.016, (2S,4R)-1-(4,6-bis(trifluoromethyl)pyridin-2-yl)-N-(4-fluorophenyl)-4-hydroxy-N-methylpyrrolidine-2-carboxamide] | ≤ 0.2 |  |
| CN(C(=O)C1CCCN1c1nc(C(F)(F)F)cc(C(F)(F)F)n1)c1ccc(F)cc1 (stereo not drawn) [1.017, 1-(4,6-bis(trifluoromethyl)pyrimidin-2-yl)-N-(4-fluorophenyl)-N-methylpyrrolidine-2-carboxamide] | ≤ 0.2 |  |
| CN(C(=O)[C@@H]1CCCN1c1cc(C(F)(F)F)cc(C(F)(F)F)n1)c1cccc(C#N)c1 [1.018, (S)-1-(4,6-bis(trifluoromethyl)pyridin-2-yl)-N-(3-cyanophenyl)-N-methylpyrrolidine-2-carboxamide] | ≤ 0.2 |  |
| C[C@H]1CC[C@@H](C(=O)N(C)c2ccc(F)cc2)N1c1cc(C(F)(F)F)cc(C(F)(F)F)n1 [1.021, (2S,5S)-1-(4,6-bis(trifluoromethyl)pyridin-2-yl)-N-(4-fluorophenyl)-N,5-dimethylpyrrolidine-2-carboxamide] |  | ≤ 0.2 |
| C[C@@H]1CC[C@@H](C(=O)N(C)c2ccc(F)cc2)N1c1cc(C(F)(F)F)cc(C(F)(F)F)n1 [1.023, (2S,5R)-1-(4,6-bis(trifluoromethyl)pyridin-2-yl)-N-(4-fluorophenyl)-N,5-dimethylpyrrolidine-2-carboxamide] |  | 0.5 to 1 |
| CN(C(=O)[C@@H]1CCN1c1nc(C(F)(F)F)cc(C(F)(F)F)c1C#N)c1ccc(F)cc1 [1.025, (S)-1-(3-cyano-4,6-bis(trifluoromethyl)pyridin-2-yl)-N-(4-fluorophenyl)-N-methylazetidine-2-carboxamide] |  | ≤ 0.2 |
| Fc1ccc(-c2cccnc2[C@@H]2CCCN2c2cc(C(F)(F)F)cc(C(F)(F)F)n2)cc1 [1.026, (S)-2-(2-(3-(4-fluorophenyl)pyridin-2-yl)pyrrolidin-1-yl)-4,6-bis(trifluoromethyl)pyridine] |  | ≤ 0.2 |
| Fc1ccc(-c2cccnc2[C@H]2CCCN2c2cc(C(F)(F)F)cc(C(F)(F)F)n2)cc1 [1.027, (R)-2-(2-(3-(4-fluorophenyl)pyridin-2-yl)pyrrolidin-1-yl)-4,6-bis(trifluoromethyl)pyridine] |  | 1 to 10 |
| O=C([C@@H]1CCCN1c1cc(C(F)(F)F)cc(C(F)(F)F)n1)N(c1ccccc1)c1ccccc1 [1.028, (S)-1-(4,6-bis(trifluoromethyl)pyridin-2-yl)-N,N-diphenylpyrrolidine-2-carboxamide] |  | 1 to 10 |
| CN(C(=O)[C@@H]1[C@H](O)CCN1c1cc(C(F)(F)F)cc(C(F)(F)F)n1)c1ccc(F)cc1 [1.029, (2S,3R)-1-(4,6-bis(trifluoromethyl)pyridin-2-yl)-N-(4-fluorophenyl)-3-hydroxy-N-methylpyrrolidine-2-carboxamide] |  | ≤ 0.2 |
| O=C([C@@H]1CCCN1c1cc(C(F)(F)F)cc(C(F)(F)F)n1)N(c1ccc(F)cc1)C1COC1 [1.030, (S)-1-(4,6-bis(trifluoromethyl)pyridin-2-yl)-N-(4-fluorophenyl)-N-(oxetan-3-yl)pyrrolidine-2-carboxamide] |  | ≤ 0.2 |
| Cc1cc(C)nc(N2CCC[C@H]2C(=O)N(C)c2ccc(F)cc2)c1 [1.031, (S)-1-(4,6-dimethylpyridin-2-yl)-N-(4-fluorophenyl)-N-methylpyrrolidine-2-carboxamide] | 0.2 to 0.5 |  |
